Experimental data from PubChem BioAssay (NCI).
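All cell lines were grown in 96-well plates and treated with compound for 48 hours. Definition used: TGI = concentration required for complete inhibition of growth.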

What was measured:
Assay in all cases: inhibition of tumour cell growth, NCI panel, 48 h
SW-620 colon = system: SW-620 colon
K-562 leukemia = system: K-562 leukemia
SK-OV-3 ovarian = system: SK-OV-3 ovarian
PC-3 prostate = system: PC-3 prostate
MCF7 breast = system: MCF7 breast
SF-268 CNS = system: SF-268 CNS
HL-60(TB) leukemia = system: HL-60(TB) leukemia
MOLT-4 leukemia = system: MOLT-4 leukemia
CCRF-CEM leukemia = system: CCRF-CEM leukemia
MDA-N = system: MDA-N
OVCAR-4 ovarian = system: OVCAR-4 ovarian
UACC-62 melanoma = system: UACC-62 melanoma
M14 melanoma = system: M14 melanoma
IGROV1 ovarian = system: IGROV1 ovarian
UACC-257 melanoma = system: UACC-257 melanoma
NCI-H23 lung = system: NCI-H23 lung
UO-31 renal = system: UO-31 renal
ACHN renal = system: ACHN renal
MDA-MB-435 = system: MDA-MB-435
COLO 205 colon = system: COLO 205 colon
BT-549 breast = system: BT-549 breast
HT29 colon = system: HT29 colon
OVCAR-5 ovarian = system: OVCAR-5 ovarian
KM12 colon = system: KM12 colon
A549 NSCLC = system: A549 NSCLC
T-47D breast = system: T-47D breast
HOP-62 NSCLC = system: HOP-62 NSCLC
MALME-3M melanoma = system: MALME-3M melanoma
NCI-H226 lung = system: NCI-H226 lung
CAKI-1 renal = system: CAKI-1 renal
SN12C renal = system: SN12C renal
HOP-92 NSCLC = system: HOP-92 NSCLC
A498 renal = system: A498 renal
DU-145 prostate = system: DU-145 prostate
NCI/ADR-RES ovarian = system: NCI/ADR-RES ovarian
NCI-H522 lung = system: NCI-H522 lung
LOX IMVI melanoma = system: LOX IMVI melanoma
OVCAR-3 ovarian = system: OVCAR-3 ovarian
SF-295 CNS = system: SF-295 CNS
SNB-19 CNS = system: SNB-19 CNS
TK-10 renal = system: TK-10 renal
SNB-75 CNS = system: SNB-75 CNS
RXF 393 renal = system: RXF 393 renal
786-0 renal = system: 786-0 renal
HCC-2998 colon = system: HCC-2998 colon
HCT-116 colon = system: HCT-116 colon
SK-MEL-28 melanoma = system: SK-MEL-28 melanoma
EKVX NSCLC = system: EKVX NSCLC
HS 578T breast = system: HS 578T breast
OVCAR-8 ovarian = system: OVCAR-8 ovarian
RPMI-8226 leukemia = system: RPMI-8226 leukemia
HCT-15 colon = system: HCT-15 colon
SK-MEL-5 melanoma = system: SK-MEL-5 melanoma
MDA-MB-231 breast = system: MDA-MB-231 breast
SK-MEL-2 melanoma = system: SK-MEL-2 melanoma
U251 CNS = system: U251 CNS
NCI-H460 lung = system: NCI-H460 lung
SR leukemia = system: SR leukemia
SF-539 CNS = system: SF-539 CNS

Measured: TGI

Cc1nnc(N2C(=O)C(=Cc3ccc(Cl)cc3)N=C2c2ccc(Cl)cc2)nc1/C=C\c1ccc(N(C)C)cc1
> 100 µM: SW-620 colon | K-562 leukemia | SK-OV-3 ovarian | PC-3 prostate | MCF7 breast | SF-268 CNS | HL-60(TB) leukemia | MOLT-4 leukemia | CCRF-CEM leukemia | MDA-N | OVCAR-4 ovarian | UACC-62 melanoma | M14 melanoma | IGROV1 ovarian | UACC-257 melanoma | NCI-H23 lung | UO-31 renal | ACHN renal | MDA-MB-435 | COLO 205 colon | BT-549 breast | HT29 colon | OVCAR-5 ovarian | KM12 colon | A549 NSCLC | T-47D breast | HOP-62 NSCLC | MALME-3M melanoma | NCI-H226 lung | CAKI-1 renal | SN12C renal | HOP-92 NSCLC | A498 renal | DU-145 prostate | NCI/ADR-RES ovarian | NCI-H522 lung | LOX IMVI melanoma | OVCAR-3 ovarian | SF-295 CNS | SNB-19 CNS | TK-10 renal | SNB-75 CNS | RXF 393 renal | 786-0 renal | HCC-2998 colon | HCT-116 colon | SK-MEL-28 melanoma | EKVX NSCLC | HS 578T breast | OVCAR-8 ovarian | RPMI-8226 leukemia | HCT-15 colon | SK-MEL-5 melanoma | MDA-MB-231 breast | SK-MEL-2 melanoma | U251 CNS | NCI-H460 lung

Nc1nc(=O)c2[nH]cnc2n1O
> 100 µM: SR leukemia | SW-620 colon | SF-539 CNS | K-562 leukemia | SK-OV-3 ovarian | PC-3 prostate | MCF7 breast | SF-268 CNS | HL-60(TB) leukemia | MOLT-4 leukemia | CCRF-CEM leukemia | MDA-N | OVCAR-4 ovarian | UACC-62 melanoma | M14 melanoma | IGROV1 ovarian | UACC-257 melanoma | NCI-H23 lung | UO-31 renal | ACHN renal | COLO 205 colon | BT-549 breast | HT29 colon | OVCAR-5 ovarian | KM12 colon | A549 NSCLC | T-47D breast | HOP-62 NSCLC | MALME-3M melanoma | NCI-H226 lung | SN12C renal | HOP-92 NSCLC | A498 renal | DU-145 prostate | NCI/ADR-RES ovarian | NCI-H522 lung | LOX IMVI melanoma | OVCAR-3 ovarian | SF-295 CNS | SNB-19 CNS | TK-10 renal | SNB-75 CNS | RXF 393 renal | 786-0 renal | HCT-116 colon | SK-MEL-28 melanoma | EKVX NSCLC | HS 578T breast | OVCAR-8 ovarian | RPMI-8226 leukemia | HCT-15 colon | SK-MEL-5 melanoma | MDA-MB-231 breast | SK-MEL-2 melanoma | U251 CNS | NCI-H460 lung
